Assay results reported in PMC11387447 (Pharmacological Reports, 2024).
Read-outs that look alike come from different tables or passages of the source. Marks after values point to notes of the source that are not given here.

Experiments:
[1] = IIIATO group: single oral ATO 20 mg/kg b.w. alone, rat plasma, n = 8; median (quartiles) or mean ± SD (CV %); adopted from previous study ref 12; cited from earlier work
[2] = Plasma pharmacokinetics of REG, M-2 and M-5 in rats after single oral REG with or without ATO (UPLC-MS/MS, non-compartmental analysis); type: in vivo, male Wistar rats; conditions: for increase of AUC0–t / increase of AUC0–∞: IREG+ATO group compared to control IIREG group; for Cmax as share of the REG Cmax: single dose of REG 20 mg/kg; for AUC0–t / AUC0–∞ / Cmax / AUC(0-inf) / AUC(0-t): rat plasma; for AUC0–t / AUC0–∞ / Cmax / Tmax / Vd/F / AUC(0-inf) / AUC(0-t): n = 8
Protocol: Nonetheless, no other experimental conditions were changed.
Next, 20 μL of acetonitrile was added. The samples were mixed for 10 min and then centrifuged for 10 min at 8500 rpm. 50 μL of the resulting supernatant was filtered and used for further analysis. Each sample was analyzed twice, and the arithmetic mean was determined from the surface areas obtained in the chromatogram.
The LC–MS/MS system consisted of a Xevo TQ-S-micro triple quadrupole mass spectrometer coupled with a UPLC Acquity I-class PLUS (Waters Corporation, Milford, MA, USA), and the Waters Software MassLynx V4.2 SCN1017 Software. A Cortecs UPLC C18 column (2.1 × 50 mm, 1.6 μm) was equipped with an Acquity UPLC BEH C18 VanGuard pre-column (2.1 × 5 mm, 3/Pk, Waters Corporation). The injection volume was 5 μL. The temperature of the autosampler was 4 °C, and the temperature of the column was 40 °C. Mobile phase A was composed of 0.1% aqueous formic acid solution (v/v), and phase B of acetonitrile: methanol and 0.1% formic acid aqueous solution at 1:3 (v/v) ratio. The total run time was 5 min. […] Positive electrospray ionization (ESI) multiple reaction monitoring (MRM) experiments were conducted for sample analysis. The Xevo TQ-S Micro Mass spectrometer (Waters) was run in the positive ion mode, and configured in the multiple reaction monitoring mode, for the detection of REG, REG-N-oxide (M-2), N-desmethyl-REG-N-oxide (M-5), and isotope-labelled REG-d3.
The data were collected and processed using the MassLynx Software (V 4.2 SCN 1017, Waters). The following settings were used for the Xevo TQ-S Micro Mass spectrometer: source temperature—150 °C, desolvation temperature—600 °C, nitrogen gas flow—900 L/h, capillary voltage 3.6 kV. Transition ion pairs (parent m/z—daughter m/z) were identified, using the MRM mode, for the following compounds: 482.95–270.08 and 288.02 for REG; 499.00–304.01, 252.16, and 229.00 for M-2; 485.94–202.02 and 228.98 for M-5; and 486.02–273.07 for REG-d3 as an IS.

[3] = parameters: method as in earlier work; conditions: mice, repeated oral 10 mg/kg of REG for 5 consecutive days; ref 27 (Zopf et al.); cited from earlier work
[4] = IIREG group: REG 20 mg/kg b.w. alone, median (quartiles)
[5] = IREG+ATO group: REG 20 mg/kg + ATO 20 mg/kg b.w., median (quartiles)
[6] = metabolite of REG, IIREG group: single oral REG 20 mg/kg b.w. alone, median (quartiles)
[7] = metabolite of REG, IREG+ATO group: single oral REG 20 mg/kg + ATO 20 mg/kg b.w., median (quartiles)
[8] = in the presence of ATO (IREG+ATO vs IIREG)
[9] = male, Wistar, rat, plasma, po, 20 mg/kg, IIREG group: single oral REG 20 mg/kg b.w. alone, median (quartiles)
[10] = male, Wistar, rat, plasma, po, 20 mg/kg, IREG+ATO group: single oral REG 20 mg/kg + ATO 20 mg/kg b.w., median (quartiles)

SMILES: CC(C)c1c(C(=O)Nc2ccccc2O)c(-c2ccccc2)c(-c2ccc(F)cc2)n1CC[C@@H](O)C[C@@H](O)CC(=O)O [2-OH ATO, orthohydroxy atorvastatin]
- AUC0–t [1]: 544.83 (448.90; 682.46) ng × h/mL
- Cmax [1]: 126.09 (87.49; 276.16) ng/mL

SMILES: CC(C)c1c(C(=O)Nc2ccc(O)cc2)c(-c2ccccc2)c(-c2ccc(F)cc2)n1CC[C@@H](O)C[C@@H](O)CC(=O)O [4-OH ATO, parahydroxy atorvastatin]
- AUC0–∞ [1]: 18.32 (12.89; 24.73) ng × h/mL

SMILES: CNC(=O)c1cc(Oc2ccc(NC(=O)Nc3ccc(Cl)c(C(F)(F)F)c3)c(F)c2)cc[n+]1[O-] [M-2, regorafenib N-oxide]
- M-2/REG ratio AUC0–t [2, 4]: 0.26 (0.20; 0.31)
- M-2/REG ratio AUC0–∞ [2, 4]: 0.30 (0.26; 0.38)
- M-2/REG ratio Cmax [2, 4]: 0.18 (0.13; 0.28)
- increase of AUC0–t [2]: 4.5 fold
- increase of AUC0–∞ [2]: 3.6 fold
- Cmax as share of the REG Cmax ([2]; IREG+ATO group): 24.14%
- M-2/REG ratio AUC0–t [2, 5]: 0.31 (0.27; 0.45)
- M-2/REG ratio Cmax [2, 5]: 0.27 (0.20; 0.33)
- Gmean ratio (90% CI) of AUC0–t ([2]; IREG+ATO vs IIREG): 5.47 (4.30; 6.96)*
- Gmean ratio (90% CI) of AUC0–∞ ([2]; IREG+ATO vs IIREG): 4.55 (3.70; 5.60)*
- Gmean ratio (90% CI) of Cmax ([2]; IREG+ATO vs IIREG): 5.03 (3.82; 6.62)*
- Gmean ratio (90% CI) of M-2/REG ratio AUC0–t ([2]; IREG+ATO vs IIREG): 1.30 (0.96; 1.76)*
- Gmean ratio (90% CI) of M-2/REG ratio AUC0–∞ ([2]; IREG+ATO vs IIREG): 1.08 (0.81; 1.46)*
- Gmean ratio (90% CI) of M-2/REG ratio Cmax ([2]; IREG+ATO vs IIREG): 1.35 (0.60; 3.07)*
- Cmax as share of the REG Cmax ([2]; REG group): 15.28%
- AUC0–t [2, 6]: 9548.40 (8488.70; 11,642.31) ng × h/mL
- AUC0–∞ [2, 6]: 10,947.48 (9718.99; 12,781.14) ng × h/mL
- Cmax [2, 6]: 302.15 (249.90; 395.95) ng/mL
- AUC0–t [2, 7]: 52,182.11 (40,840.43; 64,989.90) ng × h/mL
- AUC0–∞ [2, 7]: 52,438.36 (41,030.58; 65,561.89) ng × h/mL
- Cmax [2, 7]: 1647.45 (1374.65; 1994.65) ng/mL
- Cmax as share of the REG Cmax [3]: 15.17%

SMILES: NC(=O)c1cc(Oc2ccc(NC(=O)Nc3ccc(Cl)c(C(F)(F)F)c3)c(F)c2)cc[n+]1[O-] [M-5, N-desmethyl regorafenib N-oxide]
- M-5/REG ratio Cmax [2, 4]: 0.01 (0.01; 0.02)
- increase of AUC0–t [2]: 6.0 fold
- increase of AUC0–∞ [2]: 6.0 fold
- Cmax as share of the REG Cmax ([2]; IREG+ATO group): 2.12%
- M-5/REG ratio Cmax [2, 5]: 0.02 (0.02; 0.02)
- Gmean ratio (90% CI) of AUC0–t ([2]; IREG+ATO vs IIREG): 7.13 (6.13; 8.29)*
- Gmean ratio (90% CI) of AUC0–∞ ([2]; IREG+ATO vs IIREG): 7.16 (6.21; 8.26)*
- Gmean ratio (90% CI) of Cmax ([2]; IREG+ATO vs IIREG): 5.65 (5.06; 6.31)*
- Gmean ratio (90% CI) of M-5/REG ratio AUC0–t ([2]; IREG+ATO vs IIREG): 1.70 (1.42; 2.03)
- Gmean ratio (90% CI) of M-5/REG ratio AUC0–∞ ([2]; IREG+ATO vs IIREG): 1.71 (1.43; 2.03)
- Gmean ratio (90% CI) of M-5/REG ratio Cmax ([2]; IREG+ATO vs IIREG): 1.52 (0.68; 3.39)*
- Cmax as share of the REG Cmax ([2]; REG group): 1.17%
- increase of M-5/REG ratio for AUC0–t ([2]; in the presence of ATO): 100.0%
- increase of M-5/REG ratio for AUC0–∞ ([2]; in the presence of ATO): 100.0%
- increase of M-5/REG ratio for Cmax ([2]; in the presence of ATO): 66.7%
- AUC0–t [2, 6]: 791.48 (703.15; 884.23) ng × h/mL
- AUC0–∞ [2, 6]: 833.10 (752.92; 929.13) ng × h/mL
- Cmax [2, 6]: 26.90 (23.40; 28.65) ng/mL
- AUC0–t [2, 7]: 5501.55 (5310.04; 5967.36) ng × h/mL
- AUC0–∞ [2, 7]: 5919.80 (5556.63; 6371.62) ng × h/mL
- Cmax [2, 7]: 150.05 (136.75; 155.40) ng/mL
- Cmax as share of the REG Cmax [3]: 1.27%

SMILES: CNC(=O)c1cc(Oc2ccc(NC(=O)Nc3ccc(Cl)c(C(F)(F)F)c3)c(F)c2)ccn1 [REG, regorafenib, reference compound]
- increase of AUC0–t [2]: 3.2 fold
- increase of AUC0–∞ [2]: 3.2 fold
- Gmean ratio (90% CI) of AUC0–t ([2]; IREG+ATO vs IIREG): 4.20 (3.57; 4.95)*
- Gmean ratio (90% CI) of AUC0–∞ ([2]; IREG+ATO vs IIREG): 4.20 (3.56; 4.94)*
- Gmean ratio (90% CI) of Cl/F ([2]; IREG+ATO vs IIREG): 0.26 (0.22; 0.30)*
- Gmean ratio (90% CI) of Cmax ([2]; IREG+ATO vs IIREG): 3.72 (3.20; 4.32)*
- Gmean ratio (90% CI) of Vd/F ([2]; IREG+ATO vs IIREG): 0.28 (0.22; 0.37)*
- Gmean ratio (90% CI) of ka ([2]; IREG+ATO vs IIREG): 1.60 (1.09; 2.37)
- Gmean ratio (90% CI) of kel ([2]; IREG+ATO vs IIREG): 0.91 (0.75; 1.10)
- Gmean ratio (90% CI) of t1/2 ([2]; IREG+ATO vs IIREG): 1.10 (0.91; 1.33)
- Gmean ratio (90% CI) of tmax ([2]; IREG+ATO vs IIREG): 0.85 (0.63; 1.17)*
- differences in tmax, ka, kel, t0.5 ([2]; IREG+ATO vs IIREG): No statistically significant differences
- decrease of Cl/F [2, 8]: 72.7%
- decrease of Vd/F [2, 8]: 71.7%
- Tmax [2, 9]: 6 h
- Vd/F [2, 9]: 1.98 L
- AUC(0-inf) [2, 9]: 36000 ng·h/mL
- AUC(0-t) [2, 9]: 35800 ng·h/mL
- Cmax ([2]; male, Wistar, rat, plasma, po, 20 mg/kg, IIREG group: single oral REG 20 mg/kg b.w. alone, median (quartiles), read-out: Cmax): 1880 ng/mL
- Tmax [2, 10]: 5 h
- Vd/F [2, 10]: 0.51 L
- AUC(0-inf) [2, 10]: 163000 ng·h/mL
- AUC(0-t) [2, 10]: 163000 ng·h/mL
- Cmax ([2]; male, Wistar, rat, plasma, po, 20 mg/kg, IREG+ATO group: single oral REG 20 mg/kg + ATO 20 mg/kg b.w., median (quartiles), read-out: Cmax): 7290 ng/mL
